Data from PMC11879040, “Advancing systemic toxicity risk assessment: Evaluation of a NAM-based toolbox approach” (Toxicological Sciences, 2024).
Read-outs that look alike come from different tables or passages of the source.

What was measured:
[1] = test system: Gamma-aminobutyric acid receptor subunit alpha-1 BZD site, GABRA1A (r); assay type: binding, rat
HepaRG cells = assay: High-throughput transcriptomics (HTTr, TempO-Seq), HepaRG, 24 h; assay type: cell-based, human; settings: HepaRG; for pod_httr_bifrost PoD: HTTr BIFROST PoD; for podl_path_minbmd PoD: HTTr minimum pathway BMD(L)
Procedure: (§1) HepG2, HepaRG, and MCF7 cells were treated with each compound for 24 h across a dose range of 7 concentrations and lysed using TempO-Seq lysis buffer (BioSpyder Technologies, proprietary kit, see [Middleton et al. 2022] for method details). Sequencing was performed using TempO-Seq (BioClavis) version 2 of the human whole transcriptome panel and analyzed as described previously in Middleton et al.

human = settings: 7 month human volunteer study; ref [19-22]; cited from earlier work
[2] = target: T1, Adenosine receptor A2a, ADORA2A (h) (Homo sapiens, UniProt P29274); assay: IPP ADORA2A binding (agonist radioligand); settings: IPP screening at 100 uM; control NECA
T1 construct: purchased Eurofins Cerep (SafetyScreen44-based IPP panel)

[3] = test system: Glutamate receptor ionotropic NMDA 1 non-selective, GRIN1 (r)
MCF7 cells = assay: High-throughput transcriptomics (HTTr, TempO-Seq), MCF7, 24 h; assay type: cell-based, human; settings: MCF-7; for pod_httr_bifrost PoD: HTTr BIFROST PoD; for podl_path_minbmd PoD: HTTr minimum pathway BMD(L)
Procedure: as §1

monkey = settings: cited from earlier work
HepG2 cells [4] = assay: Cell stress panel (CSP), 24 h, 8 concentrations, BIFROST global PoD; assay type: cell-based; settings: HepG2; cell stress panel PoD
Procedure: Compounds were tested using the previously developed cell stress panel ([Hatherell et al. 2020]) and the expanded biomarker panel outlined in Middleton et al. HepG2 cells were treated with all compounds for 24 h across 8 concentrations prior to biomarker analysis. The same plate layout and number of replicates (3 biological and 2 technical) were used as previously for each assay within the panel.

[5] = test system: Potassium Voltage-Gated Channel Kv non-selective, KCNQ1 (r); assay: IPP KCNQ1 binding (antagonist radioligand); parameters: species or system rat; settings: IPP screening at 100 uM; control α-dendrotoxin
[6] = ref [19-22]; cited from earlier work
HepG2 cells [7] = assay: High-throughput transcriptomics (HTTr, TempO-Seq), HepG2, 24 h; assay type: cell-based, human; settings: HepG2; for pod_httr_bifrost PoD: HTTr BIFROST PoD; for podl_path_minbmd PoD: HTTr minimum pathway BMD(L)
Procedure: as §1

[8] = test system: Sodium channel protein type 5 subunit alpha (site 2), SCN5A (r); assay type: binding, rat
[9] = human
[10] = test system: Thyroid hormone receptor alpha, THRA (h); assay: IPP THRA coactivator recruitment (agonist); assay type: biochemical, human; settings: 100 uM; agonist; T3; * denotes assay interference (2-Amino-6-chloro-4-nitrophenol, HC Red 3)
Tubulin (r) = assay: IPP Tubulin binding; parameters: species or system rat; settings: 100 uM; ligand/control Colchicine
[11] = cited from earlier work
[12] = skin penetration (PBK input)
[13] = per chemical see Peff Reference, cited from earlier work
[14] = target: Voltage-dependent L-type Ca2+ channel (dihydropyridine site), CACNA1C (r) (Rattus norvegicus, UniProt P22002); assay type: binding
[15] = cited from earlier work; remark: listed apart in the source
[16] = Assignment of risk classifications to benchmark chemical-exposure scenarios; settings: for risk: from table S1
[17] = hepatic intrinsic clearance (Clint); settings: PBK input, levels L2/L3; scaled from [10]
[18] = test system: 63 targets with known safety liabilities; assay: In vitro pharmacological profiling (IPP) panel, screening at 10 or 100 µM and dose response, minimum IC50/AC50; assay type: biochemical; settings: lowest AC50 across IPP panel (systemic targets); cell_type -; read-out: ipp_lowest_ac50_systemic PoD
rat = settings: rat; repeat dose toxicity : oral; ref ToxRefDB/Paul-Friedman et al. (2020)/regulatory opinions; cited from earlier work
[19] = intestinal absorption (PBK input); assay type: in vitro ADME; settings: levels L2/L3, converted from [36]
[20] = IPP screening at 100 uM, control diazepam
[21] = IV 200 mg slow IV (3min), 8 healthy male, validation, ref Martin et al. 1990
[22] = IV 400 mg slow IV (3min), 8 healthy male, validation, ref Martin et al. 1990
[23] = IV 800 mg infusion over five to seven minutes, 12 healthy, calibration, ref Pavliv et al. 2011
[24] = Oral 400 mg tablet, fasted, 18 healthy elderly, validation, ref Albert et al. 1984
[25] = Oral 500 mg ibuprofen lysine tablet (equivalent to 292.6 mg ibuprofen free acid), fasted, 8 healthy male, validation, ref Martin et al. 1990
[26] = Oral 800 mg tablet, fasted, 12 healthy, calibration, ref Pavliv et al. 2011
[27] = Oral 800 mg tablet, fasted, 13 healthy, validation, ref Duxin et al. 2017
[28] = Oral 800 mg tablet, fasted, 18 healthy elderly, validation, ref Albert et al. 1984
[29] = Oral 800 mg tablet, fed, 10 healthy, validation, ref Duxin et al. 2017
[30] = Oral 1200 mg tablet, fasted, 18 healthy elderly, validation, ref Albert et al. 1984
[31] = PBK level L2, optimised based on [21] (glutaraldehyde), [23] (HCRed3), [28] (ibuprofen)
[32] = PBK level L3, optimised based on [28]
[33] = IPP screening at 100 uM, control CGS 19755

T1 sequence (P29274 whole entry): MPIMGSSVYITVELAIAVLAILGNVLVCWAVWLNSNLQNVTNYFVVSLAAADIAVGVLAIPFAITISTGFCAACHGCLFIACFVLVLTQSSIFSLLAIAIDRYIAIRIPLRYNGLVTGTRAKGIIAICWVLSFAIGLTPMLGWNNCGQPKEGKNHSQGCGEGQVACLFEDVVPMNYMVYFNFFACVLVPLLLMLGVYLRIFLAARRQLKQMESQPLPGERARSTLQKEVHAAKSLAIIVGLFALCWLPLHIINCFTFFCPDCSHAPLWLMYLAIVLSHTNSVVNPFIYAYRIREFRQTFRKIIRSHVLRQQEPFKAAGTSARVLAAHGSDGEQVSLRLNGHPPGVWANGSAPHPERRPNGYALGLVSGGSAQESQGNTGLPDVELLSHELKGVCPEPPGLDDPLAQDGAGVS
Sequence of Voltage-dependent L-type Ca2+ channel (dihydropyridine site), CACNA1C (r) (P22002 whole entry): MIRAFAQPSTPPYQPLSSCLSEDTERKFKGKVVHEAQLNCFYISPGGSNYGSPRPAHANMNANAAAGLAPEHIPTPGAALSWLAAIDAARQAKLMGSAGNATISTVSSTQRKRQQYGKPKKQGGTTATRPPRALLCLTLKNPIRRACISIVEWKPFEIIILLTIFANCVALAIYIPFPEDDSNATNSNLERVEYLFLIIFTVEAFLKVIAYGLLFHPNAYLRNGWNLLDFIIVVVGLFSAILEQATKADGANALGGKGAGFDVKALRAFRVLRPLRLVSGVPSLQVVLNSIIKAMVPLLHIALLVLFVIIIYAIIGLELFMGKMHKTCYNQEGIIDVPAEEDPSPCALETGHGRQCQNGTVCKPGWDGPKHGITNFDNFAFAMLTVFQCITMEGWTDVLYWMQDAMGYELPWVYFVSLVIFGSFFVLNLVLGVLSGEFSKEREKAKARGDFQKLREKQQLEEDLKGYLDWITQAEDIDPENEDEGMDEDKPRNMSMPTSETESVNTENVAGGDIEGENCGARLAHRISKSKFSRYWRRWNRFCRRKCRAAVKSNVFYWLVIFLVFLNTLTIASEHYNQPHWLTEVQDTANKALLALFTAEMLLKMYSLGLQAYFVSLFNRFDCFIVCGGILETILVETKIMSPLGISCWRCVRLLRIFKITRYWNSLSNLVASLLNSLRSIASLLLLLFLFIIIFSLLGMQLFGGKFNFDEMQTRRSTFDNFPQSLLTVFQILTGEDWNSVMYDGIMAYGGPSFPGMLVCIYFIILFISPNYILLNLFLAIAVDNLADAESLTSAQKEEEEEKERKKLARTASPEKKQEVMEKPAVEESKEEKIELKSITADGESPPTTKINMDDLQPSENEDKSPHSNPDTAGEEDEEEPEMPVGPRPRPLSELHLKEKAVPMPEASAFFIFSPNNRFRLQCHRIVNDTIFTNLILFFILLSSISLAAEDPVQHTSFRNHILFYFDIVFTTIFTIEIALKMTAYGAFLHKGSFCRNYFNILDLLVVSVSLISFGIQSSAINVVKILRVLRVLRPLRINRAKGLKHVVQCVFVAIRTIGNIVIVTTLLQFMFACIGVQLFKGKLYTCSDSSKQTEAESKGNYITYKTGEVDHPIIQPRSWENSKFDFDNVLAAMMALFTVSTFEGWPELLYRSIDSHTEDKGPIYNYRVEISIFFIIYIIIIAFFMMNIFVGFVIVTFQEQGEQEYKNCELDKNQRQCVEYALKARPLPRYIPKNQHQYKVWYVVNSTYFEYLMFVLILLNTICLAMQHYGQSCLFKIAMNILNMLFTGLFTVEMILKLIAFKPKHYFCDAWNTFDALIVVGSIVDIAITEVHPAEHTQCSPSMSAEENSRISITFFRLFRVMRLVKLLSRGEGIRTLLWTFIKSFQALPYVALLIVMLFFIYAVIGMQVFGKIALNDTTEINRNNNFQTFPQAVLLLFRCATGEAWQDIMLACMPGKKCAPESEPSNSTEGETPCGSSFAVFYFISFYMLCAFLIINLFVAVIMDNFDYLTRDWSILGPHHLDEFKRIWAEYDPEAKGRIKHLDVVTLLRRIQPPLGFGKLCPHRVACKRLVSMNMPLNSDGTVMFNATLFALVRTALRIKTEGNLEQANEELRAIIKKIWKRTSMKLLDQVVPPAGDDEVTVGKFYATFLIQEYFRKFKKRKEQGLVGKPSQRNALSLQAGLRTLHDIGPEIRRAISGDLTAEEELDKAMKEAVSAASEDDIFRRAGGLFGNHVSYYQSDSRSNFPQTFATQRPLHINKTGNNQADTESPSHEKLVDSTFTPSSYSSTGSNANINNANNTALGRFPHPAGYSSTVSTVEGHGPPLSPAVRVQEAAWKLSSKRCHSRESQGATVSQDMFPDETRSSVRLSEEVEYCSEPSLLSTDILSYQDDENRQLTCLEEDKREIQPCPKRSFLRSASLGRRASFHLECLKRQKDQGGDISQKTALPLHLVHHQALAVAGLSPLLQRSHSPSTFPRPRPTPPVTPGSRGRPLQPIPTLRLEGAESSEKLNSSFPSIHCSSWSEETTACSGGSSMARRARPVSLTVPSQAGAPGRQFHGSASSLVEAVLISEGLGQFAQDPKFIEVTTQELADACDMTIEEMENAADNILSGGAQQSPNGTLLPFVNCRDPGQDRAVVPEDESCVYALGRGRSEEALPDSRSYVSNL

## O=S(=O)(O)NC1CCCCC1 [Cyclamate, Sodium cyclohexylsulfamate]
[1]
  Specific binding: -8.6%
HepaRG cells
  responding probes (with CDS > 0.5): 7
human
  dietary level at which persistent diarrhoea was noted: ≥ 141 mg/kg bw/day
[2]
  Specific binding: 1.0%
[3]
  Specific binding: -4.4%
MCF7 cells
  responding probes (with CDS > 0.5): 18
monkey; lifetime monkey study, 500 mg/kg bw/day, at 23 years, ref [19-22]
  male monkeys showing testicular effects: 2/5
HepG2 cells [4]
  pod_cell_stress PoD: 480.52 µM
[5]
  Specific binding: 0.6%
[6]
  ADI: 7 mg/kg bw/day
HepG2 cells [7]
  responding probes (with CDS > 0.5): 22
[8]
  Specific binding: 19.1%
[9]
  risk: 0
[10]
  IPP screening %, Coactivator recruitment: 2.0%
Tubulin (r)
  IPP screening %, Specific binding: 21.0%

## CC(C)Cc1ccc(C(C)C(=O)O)cc1 (stereo not drawn) [Ibuprofen, 2-[4-(2-Methylpropyl)phenyl]propanoic acid]
[1]; [20]
  Specific binding: 5.3%
[11]; [21]
  Reported AUC0-t: 59.96 µg·h/mL
  Reported cmax: 39 µg/mL
[11]; [22]
  Reported AUC0-t: 117.4 µg·h/mL
  Reported cmax: 79.75 µg/mL
[11]; [23]
  Reported AUC0-t: 187.4 µg·h/mL
  Reported cmax: 120.2 µg/mL
[11]; [24]
  Reported AUC0-t: 128 µg·h/mL
  Reported cmax: 32.5 µg/mL
[11]; [25]
  Reported AUC0-t: 85.59 µg·h/mL
  Reported cmax: 30.32 µg/mL
[11]; [26]
  Reported AUC0-t: 187.4 µg·h/mL
  Reported cmax: 57.3 µg/mL
[11]; [27]
  Reported AUC0-t: 252 µg·h/mL
  Reported cmax: 41.52 µg/mL
[11]; [28]
  Reported AUC0-t: 236.6 µg·h/mL
  Reported cmax: 60.2 µg/mL
[11]; [29]
  Reported AUC0-t: 223 µg·h/mL
  Reported cmax: 25.22 µg/mL
[11]; [30]
  Reported AUC0-t: 279.2 µg·h/mL
  Reported cmax: 71.1 µg/mL
HepaRG cells
  pod_httr_bifrost PoD: 0.1626 µM
  podl_path_minbmd PoD: 8.099 µM
[12]; [31]
  Diffusivity Dermis: 1.00E-06 cm^2/s
  Diffusivity Stratum Corneum: 1.00E-09 cm^2/s
  Diffusivity Viable Epidermis: 1.00E-06 cm^2/s
[12]; PBK level L2, optimised based on [21] (glutaraldehyde), [23] (HCRed3), [28] (ibuprofen), no reference printed (DEET)
  Partition Coefficient Stratum Corneum/Water: 1500.00
[12]; PBK level L2, optimised based on [21] (glutaraldehyde), [28] (ibuprofen)
  Partition Coefficient Viable Epidermis/Water: 700.00
[12]; PBK level L2, optimised based on [23] (HCRed3), [28] (ibuprofen)
  Diffusivity Vehicle: 1.00E-05 cm^2/s
[12]; PBK level L2, optimised based on [28]
  Partition Coefficient Vehicle/Water: 10.00
[12]; [32]
  Diffusivity Dermis: 1.00E-06 cm^2/s
  Diffusivity Stratum Corneum: 1.00E-09 cm^2/s
  Diffusivity Vehicle: 1.00E-05 cm^2/s
  Diffusivity Viable Epidermis: 1.00E-06 cm^2/s
  Partition Coefficient Stratum Corneum/Water: 1500.00
  Partition Coefficient Vehicle/Water: 10.00
  Partition Coefficient Viable Epidermis/Water: 700.00
[3]; [33]
  Specific binding: 7.2%
MCF7 cells
  pod_httr_bifrost PoD: 42.8965 µM
  podl_path_minbmd PoD: 150.462 µM
monkey; monkey, 52 weeks, ref ToxRefDB/Paul-Friedman et al. (2020)/regulatory opinions
  PoD (NOAEL): 40 mg/kg bw/day
HepG2 cells [4]
  pod_cell_stress PoD: 8.518 µM
[5]
  Specific binding: -8.5%
[13]; PBK level L2, ref [3],[4],[11]
  Peff: 5.034 cm/s x E-04
[13]; PBK level L3, ref [4],[11]
  Peff: 5.034 cm/s x E-04
HepG2 cells [7]
  pod_httr_bifrost PoD: 7.6781 µM
  podl_path_minbmd PoD: 30.2909 µM
[14]
  Specific binding: -14.3%
[8]
  Specific binding: 32.1%
[10]
  IPP screening %, Coactivator recruitment: 1.0%
[15]; PBK level L2, single value or median, ref [2],[4],[6],[7],[8],[10],[11],[15],[18],[27],[34]
  Fup: 1.3%
[15]; PBK level L3, single value or median, ref [2],[4],[6],[7],[8],[10],[11],[15],[18],[27],[34]
  Fup: 1.3%
[16]; Dermal, 10%, Gel, Exp3
  risk: 1
[16]; Oral, High therapeutic, 1200mg/day, Tablet, Exp1
  risk: 1
[16]; Oral, Low therapeutic, 200mg/day, Tablet, Exp2
  risk: 1
Tubulin (r)
  IPP screening %, Specific binding: -14.0%

## CC(=O)Nc1ccc(O)cc1 [Paracetamol, N-(4-Hydroxyphenyl)acetamide]
[1]; [20]
  Specific binding: 8.7%
HepaRG cells
  pod_httr_bifrost PoD: 76.0572 µM
  podl_path_minbmd PoD: 322.442 µM
[2]
  Specific binding: 6.7%
[17]
  Intrinsic Liver Clearance: 10.79 L/h
[3]; [33]
  Specific binding: -4.2%
MCF7 cells
  pod_httr_bifrost PoD: 4.261 µM
  podl_path_minbmd PoD: 184.341 µM
HepG2 cells [4]
  pod_cell_stress PoD: 40.132 µM
[5]
  Specific binding: -3.6%
HepG2 cells [7]
  pod_httr_bifrost PoD: 9.465 µM
  podl_path_minbmd PoD: 262.202 µM
[18]
  AC50: 39.1 µM
[8]
  Specific binding: 34.9%
[10]
  IPP screening %, Coactivator recruitment: 1.0%
[15]; PBK input, level L2, ref [10]
  Fup: 100%
[16]; IV 4000 mg/day
  Risk Classification: High risk
[16]; IV, High therapeutic, 4g/day, Exp3
  risk: 1
[16]; Oral 500 mg/day
  Risk Classification: High risk
[16]; Oral 4000 mg/day
  Risk Classification: High risk
[16]; Oral, High therapeutic, 4000mg/day, Tablet, Exp1
  risk: 1
[16]; Oral, Low therapeutic, 500mg/day, Tablet, Exp2
  risk: 1
rat
  PoD (LOEL): 30 mg/kg bw/day
[19]
  Peff: 3.56 cm/s x E-04
Tubulin (r)
  IPP screening %, Specific binding: -2%
